Measurements: PubChem BioAssay (NCI)
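Step 1: Grow cells in 96-well plates. Step 2: Expose to compound for 48 hours at 5 concentrations. Step 3: Interpolate endpoints linearly; if unreached, use highest concentration. GI50 is the concentration that inhibits growth by half. Definition used: TGI = concentration required for complete inhibition of growth.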

Assays:
Experiment in all cases: NCI tumour cell line growth inhibition, 48 h
M14 melanoma = system: M14 melanoma
SK-OV-3 ovarian = system: SK-OV-3 ovarian
RXF 393 renal = system: RXF 393 renal
SW-620 colon = system: SW-620 colon
RPMI-8226 leukemia = system: RPMI-8226 leukemia
HS 578T breast = system: HS 578T breast
SN12C renal = system: SN12C renal
NCI-H522 lung = system: NCI-H522 lung
NCI-H23 lung = system: NCI-H23 lung
SF-268 CNS = system: SF-268 CNS
SK-MEL-5 melanoma = system: SK-MEL-5 melanoma
SNB-75 CNS = system: SNB-75 CNS
T-47D breast = system: T-47D breast
K-562 leukemia = system: K-562 leukemia
NCI-H460 lung = system: NCI-H460 lung
EKVX NSCLC = system: EKVX NSCLC
SK-MEL-2 melanoma = system: SK-MEL-2 melanoma
HCC-2998 colon = system: HCC-2998 colon
MCF7 breast = system: MCF7 breast
HCT-116 colon = system: HCT-116 colon
HL-60(TB) leukemia = system: HL-60(TB) leukemia
MDA-MB-435 = system: MDA-MB-435
UACC-62 melanoma = system: UACC-62 melanoma
MDA-MB-231 breast = system: MDA-MB-231 breast
CCRF-CEM leukemia = system: CCRF-CEM leukemia
HT29 colon = system: HT29 colon
SK-MEL-28 melanoma = system: SK-MEL-28 melanoma
MALME-3M melanoma = system: MALME-3M melanoma
IGROV1 ovarian = system: IGROV1 ovarian
UACC-257 melanoma = system: UACC-257 melanoma
LOX IMVI melanoma = system: LOX IMVI melanoma
COLO 205 colon = system: COLO 205 colon
NCI-H226 lung = system: NCI-H226 lung
SNB-19 CNS = system: SNB-19 CNS
SR leukemia = system: SR leukemia
MOLT-4 leukemia = system: MOLT-4 leukemia
SF-295 CNS = system: SF-295 CNS
A498 renal = system: A498 renal
TK-10 renal = system: TK-10 renal
HOP-92 NSCLC = system: HOP-92 NSCLC
HOP-62 NSCLC = system: HOP-62 NSCLC
SF-539 CNS = system: SF-539 CNS
ACHN renal = system: ACHN renal
UO-31 renal = system: UO-31 renal
CAKI-1 renal = system: CAKI-1 renal
A549 NSCLC = system: A549 NSCLC
OVCAR-4 ovarian = system: OVCAR-4 ovarian
NCI/ADR-RES ovarian = system: NCI/ADR-RES ovarian
OVCAR-8 ovarian = system: OVCAR-8 ovarian
OVCAR-3 ovarian = system: OVCAR-3 ovarian
DU-145 prostate = system: DU-145 prostate
U251 CNS = system: U251 CNS
BT-549 breast = system: BT-549 breast
OVCAR-5 ovarian = system: OVCAR-5 ovarian
786-0 renal = system: 786-0 renal
KM12 colon = system: KM12 colon
HCT-15 colon = system: HCT-15 colon
PC-3 prostate = system: PC-3 prostate

Cc1cc(O)c(C2=NN(c3ccc(S(N)(=O)=O)cc3)C(c3ccc(N(C)C)cc3)C2)c(C)c1Cl (stereo unspecified)
GI50 (M14 melanoma): 14 µM
TGI (M14 melanoma): 29.4 µM
GI50 (SK-OV-3 ovarian): 27.4 µM
TGI (SK-OV-3 ovarian): 90.8 µM
GI50 (RXF 393 renal): 24.5 µM
TGI (RXF 393 renal): 59.1 µM
GI50 (SW-620 colon): 18.4 µM
TGI (SW-620 colon): 37.8 µM
GI50 (RPMI-8226 leukemia): 7.25 µM
TGI (RPMI-8226 leukemia): 37.5 µM
GI50 (HS 578T breast): 23 µM
TGI (HS 578T breast): 62.3 µM
GI50 (SN12C renal): 9.62 µM
TGI (SN12C renal): 25 µM
GI50 (NCI-H522 lung): 18.6 µM
TGI (NCI-H522 lung): 48.4 µM
GI50 (NCI-H23 lung): 17.7 µM
TGI (NCI-H23 lung): 43.7 µM
GI50 (SF-268 CNS): 18.7 µM
TGI (SF-268 CNS): 37.2 µM
GI50 (SK-MEL-5 melanoma): 14.5 µM
TGI (SK-MEL-5 melanoma): 27.8 µM
GI50 (SNB-75 CNS): 17 µM
TGI (SNB-75 CNS): 42.2 µM
GI50 (T-47D breast): 5.72 µM
TGI (T-47D breast): 19.7 µM
GI50 (K-562 leukemia): 14 µM
TGI (K-562 leukemia): 44.8 µM
GI50 (NCI-H460 lung): 12.2 µM
TGI (NCI-H460 lung): 27.4 µM
GI50 (EKVX NSCLC): 13.3 µM
TGI (EKVX NSCLC): 36.1 µM
GI50 (SK-MEL-2 melanoma): 21.4 µM
TGI (SK-MEL-2 melanoma): 43.6 µM
GI50 (HCC-2998 colon): 14.8 µM
TGI (HCC-2998 colon): 30.9 µM
GI50 (MCF7 breast): 6.55 µM
TGI (MCF7 breast): 24.2 µM
GI50 (HCT-116 colon): 7.6 µM
TGI (HCT-116 colon): 21.1 µM
GI50 (HL-60(TB) leukemia): 20.3 µM
TGI (HL-60(TB) leukemia): 50 µM
GI50 (MDA-MB-435): 13.4 µM
TGI (MDA-MB-435): 31 µM
GI50 (UACC-62 melanoma): 9.92 µM
TGI (UACC-62 melanoma): 25.8 µM
GI50 (MDA-MB-231 breast): 11 µM
TGI (MDA-MB-231 breast): 27.2 µM
GI50 (CCRF-CEM leukemia): 15.1 µM
TGI (CCRF-CEM leukemia): 43.6 µM
GI50 (HT29 colon): 10.9 µM
TGI (HT29 colon): 25.8 µM
GI50 (SK-MEL-28 melanoma): 19.4 µM
TGI (SK-MEL-28 melanoma): 35.6 µM
GI50 (MALME-3M melanoma): 14.8 µM
TGI (MALME-3M melanoma): 32.7 µM
GI50 (IGROV1 ovarian): 18.3 µM
TGI (IGROV1 ovarian): 59 µM
GI50 (UACC-257 melanoma): 26.3 µM
TGI (UACC-257 melanoma): 63.1 µM
GI50 (LOX IMVI melanoma): 14.8 µM
TGI (LOX IMVI melanoma): 32 µM
GI50 (COLO 205 colon): 12.3 µM
TGI (COLO 205 colon): 25.4 µM
GI50 (NCI-H226 lung): 13.4 µM
TGI (NCI-H226 lung): 29.4 µM
GI50 (SNB-19 CNS): 22.2 µM
TGI (SNB-19 CNS): 62.6 µM
GI50 (SR leukemia): 14.1 µM
TGI (SR leukemia): 41 µM
GI50 (MOLT-4 leukemia): 12.7 µM
TGI (MOLT-4 leukemia): 43.2 µM
GI50 (SF-295 CNS): 19.2 µM
TGI (SF-295 CNS): 44.4 µM
GI50 (A498 renal): 26.7 µM
TGI (A498 renal): 43.9 µM
GI50 (TK-10 renal): 22.1 µM
TGI (TK-10 renal): 42.4 µM
GI50 (HOP-92 NSCLC): 10.3 µM
TGI (HOP-92 NSCLC): 23.6 µM
GI50 (HOP-62 NSCLC): 18.6 µM
TGI (HOP-62 NSCLC): 34.8 µM
GI50 (SF-539 CNS): 15.7 µM
TGI (SF-539 CNS): 29.3 µM
GI50 (ACHN renal): 14.9 µM
TGI (ACHN renal): 30.6 µM
GI50 (UO-31 renal): 12.7 µM
TGI (UO-31 renal): 29.4 µM
GI50 (CAKI-1 renal): 23.3 µM
TGI (CAKI-1 renal): > 100 µM
GI50 (A549 NSCLC): 14.7 µM
TGI (A549 NSCLC): 43.5 µM
GI50 (OVCAR-4 ovarian): 13.3 µM
TGI (OVCAR-4 ovarian): 27.6 µM
GI50 (NCI/ADR-RES ovarian): 19.3 µM
TGI (NCI/ADR-RES ovarian): 76.4 µM
GI50 (OVCAR-8 ovarian): 27.3 µM
TGI (OVCAR-8 ovarian): > 100 µM
GI50 (OVCAR-3 ovarian): 17.8 µM
TGI (OVCAR-3 ovarian): 33.3 µM
GI50 (DU-145 prostate): 19.2 µM
TGI (DU-145 prostate): 38.4 µM
GI50 (U251 CNS): 11.8 µM
TGI (U251 CNS): 26.9 µM
GI50 (BT-549 breast): 15.4 µM
TGI (BT-549 breast): 43.3 µM
GI50 (OVCAR-5 ovarian): 19.4 µM
TGI (OVCAR-5 ovarian): 38.1 µM
GI50 (786-0 renal): 16.8 µM
TGI (786-0 renal): 32.2 µM
GI50 (KM12 colon): 13.3 µM
TGI (KM12 colon): 28.3 µM
GI50 (HCT-15 colon): 14.2 µM
TGI (HCT-15 colon): 32 µM
GI50 (PC-3 prostate): 9.21 µM
TGI (PC-3 prostate): 23.9 µM
